# In US8445474B2 (Knopp Neurosciences, Inc., priority 2006, dated 2013):
# What was measured:
# [1] = biological target: human cloned dopamine receptor D2L (Homo sapiens, UniProt P14416); conditions: R(+) versus S(−)
# Method: (§1) Eight concentrations were tested: 50 nM, 100 nM, 500 nM, 1 μM, 5 μM, 10 μM, 50 μM, 100 μM. These concentrations were tested in either CHO (Chinese hamster ovary) or HEK293 (human embryonic kidney) cell lines expressing human cloned dopamine receptors (D1, D2S, D2L, D3, D4, D5). The radio-ligand in each case was either [^3H] spiperone or [^3H] SCH23390 (a classic D1 dopamine receptor antagonist R-(+)-7-Chloro-8-hydroxy-3-methyl-1-phenyl-2,3,4,5-tetrahydro-1H-3-benzazepine hydrochloride), both antagonists at 0.3 nM. Incubation was for 60 minutes, and data were collected for 2 repeats using scintillation counting.
# [2] = biological target: human cloned dopamine receptor D2S (Homo sapiens, UniProt P14416); conditions: R(+) versus S(−)
# Sequence of human cloned dopamine receptor D2S (P14416 1-414 isoform P14416-2): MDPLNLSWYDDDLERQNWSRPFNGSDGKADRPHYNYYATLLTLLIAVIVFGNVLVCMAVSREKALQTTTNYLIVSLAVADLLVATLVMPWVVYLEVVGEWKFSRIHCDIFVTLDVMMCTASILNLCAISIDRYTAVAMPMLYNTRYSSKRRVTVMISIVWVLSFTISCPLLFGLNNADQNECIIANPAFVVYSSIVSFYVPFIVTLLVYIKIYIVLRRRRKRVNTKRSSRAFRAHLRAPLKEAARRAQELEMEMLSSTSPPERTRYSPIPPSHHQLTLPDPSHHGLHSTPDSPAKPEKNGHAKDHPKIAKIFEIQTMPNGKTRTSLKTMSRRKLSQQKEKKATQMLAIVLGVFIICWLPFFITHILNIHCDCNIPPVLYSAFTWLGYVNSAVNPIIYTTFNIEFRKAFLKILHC
# Method: as §1
# [3] = biological target: human cloned dopamine receptor D3 (Homo sapiens, UniProt P35462); test: biochemical
# Sequence of human cloned dopamine receptor D3 (P35462 whole entry): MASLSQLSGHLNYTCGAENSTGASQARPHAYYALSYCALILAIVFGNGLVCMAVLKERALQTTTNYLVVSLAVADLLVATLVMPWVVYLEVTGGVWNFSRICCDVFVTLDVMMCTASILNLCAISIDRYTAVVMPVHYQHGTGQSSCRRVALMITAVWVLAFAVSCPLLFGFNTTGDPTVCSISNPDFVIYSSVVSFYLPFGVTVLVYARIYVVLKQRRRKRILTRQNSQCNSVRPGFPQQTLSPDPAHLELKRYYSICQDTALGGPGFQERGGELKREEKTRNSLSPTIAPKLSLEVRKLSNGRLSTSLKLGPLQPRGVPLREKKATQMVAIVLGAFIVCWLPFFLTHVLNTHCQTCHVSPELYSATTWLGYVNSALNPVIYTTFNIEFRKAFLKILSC
# Method: as §1
# [4] = biological target: human cloned dopamine receptor D5 (Homo sapiens, UniProt P21918); test: biochemical
# Sequence of human cloned dopamine receptor D5 (P21918 whole entry): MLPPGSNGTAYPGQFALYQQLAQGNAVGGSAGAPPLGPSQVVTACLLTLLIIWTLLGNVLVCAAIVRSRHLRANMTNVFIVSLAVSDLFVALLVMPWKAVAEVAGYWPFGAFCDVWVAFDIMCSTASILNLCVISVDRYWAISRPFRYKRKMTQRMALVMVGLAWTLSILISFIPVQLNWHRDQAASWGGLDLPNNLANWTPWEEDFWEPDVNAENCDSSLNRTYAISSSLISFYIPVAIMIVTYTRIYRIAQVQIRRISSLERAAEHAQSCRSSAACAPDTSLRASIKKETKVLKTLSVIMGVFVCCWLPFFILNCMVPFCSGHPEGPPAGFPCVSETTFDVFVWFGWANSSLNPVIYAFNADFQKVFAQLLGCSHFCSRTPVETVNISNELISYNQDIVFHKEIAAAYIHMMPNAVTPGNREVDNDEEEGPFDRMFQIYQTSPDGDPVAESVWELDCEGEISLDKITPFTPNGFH
# Method: as §1
# [5] = Dissolution of exploratory combination capsules in simulated gastric fluid (SGF), chiral HPLC; type: physicochemical; conditions: for Average Concentrations of the enantiomer, Experiments SGF (1) and SGF (2) / Concentration of the enantiomer in SGF (1) Vessel / Concentration of the enantiomer in SGF (2) Vessel: combination capsule in 10 mL SGF pH 1.2
# Method: Drug Formulation. […] Normal phase, chiral HPLC was used for monitoring the release of R(+) pramipexole and S(−) pramipexole in simulated gastric fluid (SGF).
# Dissolution Study. SGF (pH=1.2) was prepared by diluting 1 g of sodium chloride and 7 mL of concentrated HCl to 1 L with HPLC grade water. The dissolution experiment was run as follows: an exploratory combination capsule was placed in 10 mL of SGF and shaken under ambient conditions at 600 RPM for 60 minutes. Aliquots of 100 μL were pulled from the same sample vessel at various time points. The 100 μL samples of SGF solution were evaporated using a nitrogen bleed and heat and the residues were dissolved in the HPLC diluent and filtered through 0.45 μm syringe filters. […] This experiment was performed in duplicate (experiment numbers SGF (1) (see Table 4) and SGF (2) (see Table 5)) and the results are also provided in average values (see Table 6). The tables and figures below summarize the results from these experiments.
# dopamine receptors = conditions: present data
# [6] = 4320 minutes, stored benchtop in clear vial
# [7] = non-naïve male beagle dogs, single oral dose
# Method for male beagle dogs: Doses were administered orally by gavage and clinical observations were taken continuously following dosing: hourly for the first four hours, and then twice daily cage-side observations for the duration of the inter-dose or post-dose interval. Observations were made of clinical signs, mortality, injury and availability of food and water. Animals were fasted for 24 hr prior to dosing. Dogs in each group were exposed to only one drug, or the combination; each dose was administered only once, with a subsequent dose administered after a recovery period of 4 days.
# Sequence of human cloned dopamine receptor D2L (P14416 whole entry): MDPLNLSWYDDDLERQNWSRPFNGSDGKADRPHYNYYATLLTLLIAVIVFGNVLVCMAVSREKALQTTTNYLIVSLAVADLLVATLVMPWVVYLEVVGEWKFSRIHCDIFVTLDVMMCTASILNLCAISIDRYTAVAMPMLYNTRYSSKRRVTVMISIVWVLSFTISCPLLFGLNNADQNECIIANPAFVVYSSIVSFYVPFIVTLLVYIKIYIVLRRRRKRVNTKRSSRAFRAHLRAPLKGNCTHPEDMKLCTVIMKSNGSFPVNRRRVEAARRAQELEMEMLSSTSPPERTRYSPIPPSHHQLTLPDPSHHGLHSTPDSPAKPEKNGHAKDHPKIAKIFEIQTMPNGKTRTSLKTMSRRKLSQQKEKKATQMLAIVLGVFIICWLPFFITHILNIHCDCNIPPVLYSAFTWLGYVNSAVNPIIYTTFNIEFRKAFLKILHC
smiles,measurement,setting,value
"CCCN[C@H]1CCc2nc(N)sc2C1 (single isomer, unassigned) [R(+) pramipexole]",lower affinity for the D2L receptor subtype than the S(−) enantiomer,[1],"> 10,000 fold"
same,lower affinity for the D2S receptor subtype than the S(−) enantiomer,[2],"> 10,000 fold"
same,IC50,[3],12 µM
same,Ki,[3],2.7 µM
same,less affinity for the D3 receptor subtype than the S(−) enantiomer,[3]; R(+) versus S(−),"about 5,000 fold"
same,IC50,[4],> 100 µM
same,Ki,[4],> 100 µM
same,"Average Concentrations of the enantiomer, Experiments SGF (1) and SGF (2)",[5]; 3 minutes,0 mg/mL
same,Concentration of the enantiomer in SGF (1) Vessel,[5]; 3 minutes,0 µg/mL
same,Concentration of the enantiomer in SGF (2) Vessel,[5]; 3 minutes,0 µg/mL
same,"Average Concentrations of the enantiomer, Experiments SGF (1) and SGF (2)",[5]; 4 minutes,0.002035 mg/mL
same,Concentration of the enantiomer in SGF (1) Vessel,[5]; 4 minutes,1.824 µg/mL
same,Concentration of the enantiomer in SGF (2) Vessel,[5]; 4 minutes,2.245 µg/mL
same,"Average Concentrations of the enantiomer, Experiments SGF (1) and SGF (2)",[5]; 6 minutes,0.06814 mg/mL
same,Concentration of the enantiomer in SGF (1) Vessel,[5]; 6 minutes,42.59 µg/mL
same,Concentration of the enantiomer in SGF (2) Vessel,[5]; 6 minutes,93.7 µg/mL
same,"Average Concentrations of the enantiomer, Experiments SGF (1) and SGF (2)",[5]; 8 minutes,7.346 mg/mL
same,Concentration of the enantiomer in SGF (1) Vessel,[5]; 8 minutes,6441 µg/mL
same,Concentration of the enantiomer in SGF (2) Vessel,[5]; 8 minutes,8250 µg/mL
same,"Average Concentrations of the enantiomer, Experiments SGF (1) and SGF (2)",[5]; 10 minutes,8.615 mg/mL
same,Concentration of the enantiomer in SGF (1) Vessel,[5]; 10 minutes,8443 µg/mL
same,Concentration of the enantiomer in SGF (2) Vessel,[5]; 10 minutes,8787 µg/mL
same,"Average Concentrations of the enantiomer, Experiments SGF (1) and SGF (2)",[5]; 11 minutes,8.938 mg/mL
same,Concentration of the enantiomer in SGF (1) Vessel,[5]; 11 minutes,8746 µg/mL
same,Concentration of the enantiomer in SGF (2) Vessel,[5]; 11 minutes,9131 µg/mL
same,"Average Concentrations of the enantiomer, Experiments SGF (1) and SGF (2)",[5]; 12 minutes,8.927 mg/mL
same,Concentration of the enantiomer in SGF (1) Vessel,[5]; 12 minutes,8767 µg/mL
same,Concentration of the enantiomer in SGF (2) Vessel,[5]; 12 minutes,9086 µg/mL
same,"Average Concentrations of the enantiomer, Experiments SGF (1) and SGF (2)",[5]; 14 minutes,9.164 mg/mL
same,Concentration of the enantiomer in SGF (1) Vessel,[5]; 14 minutes,9236 µg/mL
same,Concentration of the enantiomer in SGF (2) Vessel,[5]; 14 minutes,9092 µg/mL
same,"Average Concentrations of the enantiomer, Experiments SGF (1) and SGF (2)",[5]; 15 minutes,9.463 mg/mL
same,Concentration of the enantiomer in SGF (1) Vessel,[5]; 15 minutes,9510 µg/mL
same,Concentration of the enantiomer in SGF (2) Vessel,[5]; 15 minutes,9416 µg/mL
same,"Average Concentrations of the enantiomer, Experiments SGF (1) and SGF (2)",[5]; 17 minutes,9.438 mg/mL
same,Concentration of the enantiomer in SGF (1) Vessel,[5]; 17 minutes,9398 µg/mL
same,Concentration of the enantiomer in SGF (2) Vessel,[5]; 17 minutes,9477 µg/mL
same,"Average Concentrations of the enantiomer, Experiments SGF (1) and SGF (2)",[5]; 18 minutes,9.258 mg/mL
same,Concentration of the enantiomer in SGF (1) Vessel,[5]; 18 minutes,9127 µg/mL
same,Concentration of the enantiomer in SGF (2) Vessel,[5]; 18 minutes,9390 µg/mL
same,"Average Concentrations of the enantiomer, Experiments SGF (1) and SGF (2)",[5]; 20 minutes,9.475 mg/mL
same,Concentration of the enantiomer in SGF (1) Vessel,[5]; 20 minutes,9457 µg/mL
same,Concentration of the enantiomer in SGF (2) Vessel,[5]; 20 minutes,9493 µg/mL
same,"Average Concentrations of the enantiomer, Experiments SGF (1) and SGF (2)",[5]; 25 minutes,9.61 mg/mL
same,Concentration of the enantiomer in SGF (1) Vessel,[5]; 25 minutes,9579 µg/mL
same,Concentration of the enantiomer in SGF (2) Vessel,[5]; 25 minutes,9641 µg/mL
same,"Average Concentrations of the enantiomer, Experiments SGF (1) and SGF (2)",[5]; 30 minutes,9.65 mg/mL
same,Concentration of the enantiomer in SGF (1) Vessel,[5]; 30 minutes,9894 µg/mL
same,Concentration of the enantiomer in SGF (2) Vessel,[5]; 30 minutes,9406 µg/mL
same,"Average Concentrations of the enantiomer, Experiments SGF (1) and SGF (2)",[5]; 60 minutes,9.127 mg/mL
same,Concentration of the enantiomer in SGF (1) Vessel,[5]; 60 minutes,9530 µg/mL
same,Concentration of the enantiomer in SGF (2) Vessel,[5]; 60 minutes,8725 µg/mL
same,"Average Concentrations of the enantiomer, Experiments SGF (1) and SGF (2)",[5]; [6],4.163 mg/mL
same,Concentration of the enantiomer in SGF (1) Vessel,[5]; [6],3624 µg/mL
same,Concentration of the enantiomer in SGF (2) Vessel,[5]; [6],4702 µg/mL
same,course of release from the capsule,"[5]; SGF pH 1.2, 60 minutes",leveled off after 11 minutes
same,cause of decrease in concentration at approximately 72 hours,[5]; SGF samples stored benchtop in a clear vial,light degradation
same,human dose equivalent to dog MTD,male beagle dogs; 70 kg individual,"about 3,000 mg"
same,MTD greater than for the S(−) enantiomer,male beagle dogs; non-naïve dogs,"about 10,000 fold"
same,NOAEL greater than for the S(−) enantiomer,male beagle dogs; non-naïve dogs,"approximately 20,000 fold"
same,MTD,male beagle dogs; [7],75 mg/kg
same,NOAEL,male beagle dogs; [7],25 mg/kg
same,less active as a dopamine agonist than the S(−) enantiomer,dopamine receptors,"more than 5,000 fold"
